Results as given in patent US20250215029A1 (Recludix Pharma, Inc., priority 2022, published 2025).

Legend:
[1] = target: T1, Recombinant STAT6 protein (STAT6 (W123-T658)) (Homo sapiens, UniProt P42226); test: STAT6 Fluorescence Polarization (FP) Assay; format: binding; conditions: STAT6 (W123-T658) 250 nM, probe 5-FAM-Ap[…]-NH2 2 nM, 45-minute incubation; read-out: STAT6 (FP assay IC50 class)
T1 construct: Recombinant STAT6 protein (STAT6 (W123-T658))
T1 sequence (P42226 123-658): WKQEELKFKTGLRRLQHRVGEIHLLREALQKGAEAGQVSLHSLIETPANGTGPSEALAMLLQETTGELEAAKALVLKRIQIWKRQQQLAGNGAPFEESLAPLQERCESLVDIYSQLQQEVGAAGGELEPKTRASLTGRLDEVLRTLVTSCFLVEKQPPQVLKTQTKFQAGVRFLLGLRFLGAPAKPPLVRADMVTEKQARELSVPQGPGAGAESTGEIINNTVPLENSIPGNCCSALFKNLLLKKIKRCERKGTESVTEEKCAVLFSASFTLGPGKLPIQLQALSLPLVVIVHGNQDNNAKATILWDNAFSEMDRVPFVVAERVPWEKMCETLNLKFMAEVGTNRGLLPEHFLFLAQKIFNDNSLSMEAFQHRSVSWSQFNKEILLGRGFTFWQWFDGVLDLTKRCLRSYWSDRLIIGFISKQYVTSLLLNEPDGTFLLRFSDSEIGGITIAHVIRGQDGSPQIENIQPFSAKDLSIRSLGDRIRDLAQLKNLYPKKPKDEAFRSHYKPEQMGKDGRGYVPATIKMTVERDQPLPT
How it was run: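 Protein-probe mix (250 nM STAT6 W123-T658, 2 nM 5-FAM-pTyr peptide) in 10 mM HEPES pH 7.4, 50 mM NaCl, 1 mM EDTA, 0.05% Tween 20, 2 mM DTT; added to compound dilution series, 1% DMSO final; 45 min RT; FP read; IC50 via nonlinear regression.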

[2] = target: T2, Recombinant STAT3 protein (STAT3 (G127-I722)) (Homo sapiens, UniProt P40763); test: STAT3 Fluorescence Polarization (FP) Assay; format: binding; conditions: STAT3 (G127-I722) 25 nM, probe 5-FAM-GpYLPQTV-NH2 2 nM, 45-minute incubation; read-out: STAT3 (FP assay IC50 class)
T2 construct: Recombinant STAT3 protein (STAT3 (G127-I722))
T2 sequence (P40763 127-722): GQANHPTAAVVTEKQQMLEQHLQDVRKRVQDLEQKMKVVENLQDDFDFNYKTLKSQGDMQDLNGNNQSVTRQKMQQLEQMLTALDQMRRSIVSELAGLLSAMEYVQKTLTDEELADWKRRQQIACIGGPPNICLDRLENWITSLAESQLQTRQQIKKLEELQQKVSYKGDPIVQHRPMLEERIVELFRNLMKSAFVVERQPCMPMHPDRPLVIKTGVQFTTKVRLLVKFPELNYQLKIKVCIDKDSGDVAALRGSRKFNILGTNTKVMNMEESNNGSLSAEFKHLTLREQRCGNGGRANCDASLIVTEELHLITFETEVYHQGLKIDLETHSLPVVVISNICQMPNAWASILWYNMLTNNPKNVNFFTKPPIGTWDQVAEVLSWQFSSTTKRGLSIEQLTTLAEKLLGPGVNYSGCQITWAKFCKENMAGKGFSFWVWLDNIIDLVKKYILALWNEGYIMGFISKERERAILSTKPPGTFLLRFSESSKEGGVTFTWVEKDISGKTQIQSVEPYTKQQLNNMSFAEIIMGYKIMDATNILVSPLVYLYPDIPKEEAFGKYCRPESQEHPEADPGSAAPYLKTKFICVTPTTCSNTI
How it was run: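 Compounds in serial dilution receive a premix of STAT3 (G127-I722, 25 nM) and fluorescent phosphotyrosine peptide 5-FAM-GpYLPQTV-NH2 (2 nM) at pH 7.4. After 45 min at room temperature, FP is measured and IC50 derived by nonlinear regression.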

Row | Compound | IC50 [1] [µM] | IC50 [2] [µM]
1 | COC1(c2cccnc2)CN(C(=O)[C@@H]2CC[C@@H]3CCCC[C@H](NC(=O)c4cc5cc(CP(=O)(O)O)ccc5s4)C(=O)N32)C1 [Compound 651, ((2-(((3S,6S,10aS)-3-(3-methoxy-3-(pyridin-3-yl)azetidine-1-carbonyl)-5-oxodecahydropyrrolo [1,2-a]azocin-6-yl)carbamoyl)benzo [b]thiophen-5-yl)methyl) phosphonic acid] | 3 to 30 | 1 to 10
2 | Cc1cncnc1C1CN(C(=O)[C@@H]2CC[C@@H]3CCC[C@H](NC(=O)c4cc5cc(C(F)(F)P(=O)(O)O)ccc5s4)C(=O)N32)C1 [Compound 652, (difluoro(2-(((3S,6S,9aS)-3-(3-(5-methylpyrimidin-4-yl)azetidine-1-carbonyl)-5-oxooctahydro-1H-pyrrolo[1,2-a]azepin-6-yl)carbamoyl)benzo [b]thiophen-5-yl)methyl) phosphonic acid] | 0.3 to 3 | 0.1 to 1
3 | N#Cc1cccc(C2CN(C(=O)[C@@H]3CC[C@@H]4CCC[C@H](NC(=O)c5cc6cc(CP(=O)(O)O)ccc6s5)C(=O)N43)C2)n1 [Compound 653, ((2-(((3S,6S,9aS)-3-(3-(6-cyanopyridin-2-yl)azetidine-1-carbonyl)-5-oxooctahydro-1H-pyrrolo[1,2-a]azepin-6-yl)carbamoyl)benzo [b]thiophen-5-yl)methyl) phosphonic acid] | 3 to 30 | 0.1 to 1
4 | COCC1(c2ncccn2)CN(C(=O)[C@@H]2CC[C@@H]3CCCC[C@H](NC(=O)c4cc5cc(C(F)(F)P(=O)(O)O)ccc5s4)C(=O)N32)C1 [Compound 654, (difluoro(2-(((3S,6S,10aS)-3-(3-(methoxymethyl)-3-(pyrimidin-2-yl)azetidine-1-carbonyl)-5-oxodecahydropyrrolo [1,2-a]azocin-6-yl)carbamoyl)benzo [b]thiophen-5-yl)methyl) phosphonic acid] | 3 to 30 | 0.1 to 1
5 | Cc1ccncc1C1CN(C(=O)[C@@H]2CC[C@@H]3C[C@@H](C)CC[C@H](NC(=O)c4cc5cc(CP(=O)(O)O)ccc5s4)C(=O)N32)C1 [Compound 655, ((2-(((3S,6S,9S,10aR)-9-methyl-3-(3-(4-methylpyridin-3-yl)azetidine-1-carbonyl)-5-oxodecahydropyrrolo [1,2-a]azocin-6-yl)carbamoyl)benzo [b]thiophen-5-yl)methyl) phosphonic acid] | 3 to 30 | 0.1 to 1
6 | Cc1ccncc1C1CN(C(=O)[C@@H]2CC[C@@H]3C[C@H](C)CC[C@H](NC(=O)c4cc5cc(CP(=O)(O)O)ccc5s4)C(=O)N32)C1 [Compound 656, ((2-(((3S,6S,9R,10aR)-9-methyl-3-(3-(4-methylpyridin-3-yl)azetidine-1-carbonyl)-5-oxodecahydropyrrolo [1,2-a]azocin-6-yl)carbamoyl)benzo [b]thiophen-5-yl)methyl) phosphonic acid] | 3 to 30 | 0.1 to 1
7 | Cc1cccnc1C1CN(C(=O)[C@@H]2CC[C@@H]3CCC[C@H](NC(=O)c4cc5cc(CP(=O)(O)O)ccc5s4)C(=O)N32)C1 [Compound 657, ((2-(((3S,6S,9aS)-3-(3-(3-methylpyridin-2-yl)azetidine-1-carbonyl)-5-oxooctahydro-1H-pyrrolo[1,2-a]azepin-6-yl)carbamoyl)benzo [b]thiophen-5-yl)methyl) phosphonic acid] | 3 to 30 | 1 to 10
8 | Cc1cccnc1C1CN(C(=O)[C@@H]2CC[C@@H]3CCC[C@H](NC(=O)c4cc5cc(C(F)(F)P(=O)(O)O)ccc5s4)C(=O)N32)C1 [Compound 658, (difluoro(2-(((3S,6S,9aS)-3-(3-(3-methylpyridin-2-yl)azetidine-1-carbonyl)-5-oxooctahydro-1H-pyrrolo[1,2-a]azepin-6-yl)carbamoyl)benzo [b]thiophen-5-yl)methyl) phosphonic acid] | 0.3 to 3 | 0.1 to 1
9 | N#Cc1cncc(C2CN(C(=O)[C@@H]3CC[C@@H]4CCC[C@H](NC(=O)c5cc6cc(CP(=O)(O)O)ccc6s5)C(=O)N43)C2)c1 [Compound 659, ((2-(((3S,6S,9aS)-3-(3-(5-cyanopyridin-3-yl)azetidine-1-carbonyl)-5-oxooctahydro-1H-pyrrolo[1,2-a]azepin-6-yl)carbamoyl)benzo [b]thiophen-5-yl)methyl) phosphonic acid] | 3 to 30 | 1 to 10

Continued, values first:

Row | IC50 [1] [µM] | IC50 [2] [µM] | Compound
10 | 3 to 30 | 1 to 10 | N#Cc1ccnc(C2CN(C(=O)[C@@H]3CC[C@@H]4CCC[C@H](NC(=O)c5cc6cc(CP(=O)(O)O)ccc6s5)C(=O)N43)C2)n1 [Compound 660, ((2-(((3S,6S,9aS)-3-(3-(4-cyanopyrimidin-2-yl)azetidine-1-carbonyl)-5-oxooctahydro-1H-pyrrolo[1,2-a]azepin-6-yl)carbamoyl)benzo [b]thiophen-5-yl)methyl) phosphonic acid]
11 | 3 to 30 | 1 to 10 | Cc1ncncc1C1CN(C(=O)[C@@H]2CC[C@@H]3CCC[C@H](NC(=O)c4cc5cc(CP(=O)(O)O)ccc5s4)C(=O)N32)C1 [Compound 661, ((2-(((3S,6S,9aS)-3-(3-(4-methylpyrimidin-5-yl)azetidine-1-carbonyl)-5-oxooctahydro-1H-pyrrolo[1,2-a]azepin-6-yl)carbamoyl)benzo [b]thiophen-5-yl)methyl) phosphonic acid]
12 | 3 to 30 | 1 to 10 | Cn1c(C2CN(C(=O)[C@@H]3CC[C@@H]4CCCC[C@H](NC(=O)c5cc6cc(CP(=O)(O)O)ccc6s5)C(=O)N43)C2)nc2ccccc21 [Compound 662, ((2-(((3S,6S,10aS)-3-(3-(1-methyl-1H-benzo[d]imidazol-2-yl)azetidine-1-carbonyl)-5-oxodecahydropyrrolo [1,2-a]azocin-6-yl)carbamoyl)benzo [b]thiophen-5-yl)methyl) phosphonic acid]
13 | 3 to 30 | 0.1 to 1 | O=C(N[C@H]1CCCC[C@H]2CC[C@@H](C(=O)N3CC(c4cccnc4)C3)N2C1=O)c1cc2cc(CP(=O)(O)O)ccc2s1 [Compound 663, ((2-(((3S,6S,10aS)-5-oxo-3-(3-(pyridin-3-yl)azetidine-1-carbonyl)decahydropyrrolo[1,2-a]azocin-6-yl)carbamoyl)benzo [b]thiophen-5-yl)methyl) phosphonic acid]
14 | 0.3 to 3 | < 0.1 | O=C(N[C@H]1CCC[C@H]2CC[C@@H](C(=O)N3CC(c4cnccc4F)C3)N2C1=O)c1cc2cc(C(F)P(=O)(O)O)ccc2s1 (stereo partly drawn) [Compound 664, (fluoro(2-(((3S,6S,9aS)-3-(3-(4-fluoropyridin-3-yl)azetidine-1-carbonyl)-5-oxooctahydro-1H-pyrrolo[1,2-a]azepin-6-yl)carbamoyl)benzo [b]thiophen-5-yl)methyl) phosphonic acid]
15 | 3 to 30 | < 0.1 | O=C(N[C@H]1CCC[C@H]2CC[C@@H](C(=O)N3CC(c4cnccc4N4CC[C@H](F)C4)C3)N2C1=O)c1cc2cc(CP(=O)(O)O)ccc2s1 [Compound 666, ((2-(((3S,6S,9aS)-3-(3-(4-((S)-3-fluoropyrrolidin-1-yl)pyridin-3-yl)azetidine-1-carbonyl)-5-oxooctahydro-1H-pyrrolo[1,2-a]azepin-6-yl)carbamoyl)benzo [b]thiophen-5-yl)methyl) phosphonic acid]
16 | 3 to 30 | < 0.1 | O=C(N[C@H]1CCC[C@H]2CC[C@@H](C(=O)N3CC(c4cnccc4N4CC[C@@H]4C(F)F)C3)N2C1=O)c1cc2cc(CP(=O)(O)O)ccc2s1 [Compound 668, ((2-(((3S,6S,9aS)-3-(3-(4-((R)-2-(difluoromethyl)azetidin-1-yl)pyridin-3-yl)azetidine-1-carbonyl)-5-oxooctahydro-1H-pyrrolo[1,2-a]azepin-6-yl)carbamoyl)benzo [b]thiophen-5-yl)methyl) phosphonic acid]
17 | 3 to 30 | 0.1 to 1 | O=C(N[C@H]1CCC[C@H]2CC[C@@H](C(=O)N3CC(c4ccccc4N4CCOCC4)C3)N2C1=O)c1cc2cc(C(F)P(=O)(O)O)ccc2s1 (stereo partly drawn) [Compound 670, (fluoro(2-(((3S,6S,9aS)-3-(3-(2-morpholinophenyl)azetidine-1-carbonyl)-5-oxooctahydro-1H-pyrrolo[1,2-a]azepin-6-yl)carbamoyl)benzo [b]thiophen-5-yl)methyl) phosphonic acid]
